In patent publication US20140005160A1, “Method for Treating Refractory Cancer” (priority 2010, published 2014):
Like-named read-outs stand apart in the source and are kept apart here.

Legend:
[1] = tested on: breast cancer cell line MDA-MB-231; test: ATCC MTT Cell Proliferation Assay, MDA-MB-231; format: cell-based; settings: for IC50: MDA-MB-231, same manner as Example 2 (Table 3); for IC50 Ratio (MDA-MB-231/MCF-7): ratio of IC50 in MDA-MB-231 to MCF-7
[2] = tested on: human lung carcinoma cell line H1975; test: ATCC MTT Cell Proliferation Assay, H1975; format: cell-based; settings: H1975 (KRAS wild type), same manner as Example 2
From the text: (§1) Table 2 summarizes the results.

[3] = tested on: human lung carcinoma cell line A549; test: ATCC MTT Cell Proliferation Assay, A549; format: cell-based; settings: for IC50 Ratio (A549/H1975): Table 5, ratio of IC50 in A549 to H1975
HCT-116 p53 (+/+) = settings: Colon HCT-116 p53 (+/+), 72 hours exposure, MTT
Protocol: (§2) The colon carcinoma cell line HCT116 (HCT-116 p53 (+/+)) and the corresponding subline with deleted p53 genes (HCT-116 p53 (−/−)) were grown in McCoy's culture medium with 10% FCS. […] For cytotoxicity assays, cells were plated (2×10^3 cells in 100 μl/well) in 96-well plates and allowed to recover for 24 hours. […] The proportion of viable cells was determined by MTT assay following the manufacturer's recommendations (EZ4U, Biomedica, Vienna, Austria).

HCT-116 p53 (−/−) = settings: Colon HCT-116 p53 (−/−), 72 hours exposure, MTT
Protocol: as §2

[4] = tested on: human prostate cancer cell line LNCaP (prostate carcinoma); settings: same manner as Example 2
From the text: (§3) In addition, the IC50 values of docetaxel in the LNCaP and PC-3 cell lines were obtained from published literature. […] See Domingo-Domenech et al., Clin. Cancer Res., 12(18):5578-5586 (2006); Blagosklonny et al., J. Urol., 163(3):1022-6 (2000).

[5] = tested on: human prostate cancer cell line PC-3 (prostate carcinoma)
From the text: as §3

[6] = tested on: human melanoma cell line A375; test: ATCC MTT Cell Proliferation Assay, A375
Protocol: (§6) Stock cultures were allowed to grow to 70-80% confluence for this study. […] ZR-75-1 plates were seeded with 3,000 cells/well, and the cells were grown in RPMI1640 medium containing 1% (1M HEPES), 1% sodium pyruvate, 1% (45% Glucose), 10% FBS and 1% penicillin/strep/glutamine. Cultures were maintained in a 37° C. humidified 5% CO2/95% air atmosphere. […] 100 μl of medium was removed from each well at 72 hours post-treatment and 10 μl MTT reagent was added to each well. The plates were incubated at 37° C. for 4 hours and then 100 μl of detergent was added. The plates were left overnight at room temperature in the dark and was read on a plate reader using SoftMax® Pro (version 5.2, Molecular Devices).
(§7) The absorbance data was analyzed as follows: Absorbance values were converted to Percent of Control and plotted against test agent concentrations for IC50 calculations using SoftMax® Pro (version 5.2, Molecular Devices). […] Percent of Control values were calculated by dividing the absorbance values for each test well by the No Drug Control average (column 11 values; cells+vehicle control) and multiplying by 100. Plots of Compound Concentration versus Percent of Control were analyzed using the 4-parameter equation to obtain IC50 values and other parameters that describe the sigmoidal dose response curve. […]

[7] = tested on: breast cancer cell line MDA-MB-231; settings: MDA-MB-231, 72 hours, EZ4U MTT (Table 4)
Protocol: (§4) Breast cancer cell line MDA-MB-231 and its corresponding bcrp-overexpressing line MDA-MB-231/bcrp were plated (2×10^3 cells in 100 μl/well) in 96-well plates and allowed to recover for 24 hours. […] The proportion of viable cells was determined by MTT assay following the manufacturer's recommendations (EZ4U, Biomedica, Vienna, Austria), and IC50 values were calculated. […] BCRP-overexpression confers resistance to drugs such as irinotecan, topotecan, mitoxantrone, methotrexate, camptothecins, gefitinib and imatinib etc. See Fojo & Menefee, Ann. Oncol., 18 (Supplement 5):v3-v8 (2007).

[8] = tested on: bcrp-overexpressing line MDA-MB-231/bcrp; settings: 72 hours, EZ4U MTT
Protocol: as §4

[9] = tested on: human breast cancer cell line MX-1; test: ATCC MTT Cell Proliferation Assay, MX-1; format: cell-based; settings: MX-1, 72 hours
Protocol: as §6, §7

[10] = tested on: human breast carcinoma cell line ZR-75-1; test: ATCC MTT Cell Proliferation Assay, ZR-75-1; format: cell-based; settings: for IC50: ZR-75-1, 72 hours, MTT; for IC50 Ratio (ZR-75-1/MX-1): ratio of IC50 in ZR-75-1 to MX-1
Protocol: as §6
The absorbance data was analyzed as follows: Absorbance values were converted to Percent of Control and plotted against test agent concentrations for IC50 calculations using SoftMax® Pro (version 5.2, Molecular Devices). The plate blank signal average was subtracted from all wells prior to calculating the Percent of Control. Percent of Control values were calculated by dividing the absorbance values for each test well by the No Drug Control average (column 11 values; cells+vehicle control) and multiplying by 100. Plots of Compound Concentration versus Percent of Control were analyzed using the 4-parameter equation to obtain IC50 values and other parameters that describe the sigmoidal dose response curve.
The IC50 value for the test agent was estimated by curve-fitting the data using the following four parameter-logistic equation:
wherein “Top” is the maximal % of control absorbance (100%), “Bottom” is the minimal % of control absorbance at the highest agent concentration (down to zero), Y is the Percent of Control absorbance, X is the test agent Concentration, IC50 is the concentration of agent that inhibits cell growth by 50% compared to the control cells, n is the slope of the curve.

[11] = tested on: alveolar epithelial cell carcinoma cell line SW-1573; settings: SW1573 cell line, 72 hours, EZ4U MTT
Protocol: (§5) The alveolar epithelial cell carcinoma cell line SW-1573 and its MVP- and MRP1-overexpressing subline SW-1573/2R120 were grown in DMEM medium supplemented with 10% fetal calf serum. See Elbling et al., Cytometry, 31:187-198 (1998). Cells were plated (2×10^3 cells in 100 μl/well) in 96-well plates and allowed to recover for 24 hours. […] The proportion of viable cells was determined by MTT assay following the manufacturer's recommendations (EZ4U, Biomedica, Vienna, Austria). […] PGP/MRP-1-overexpression confers resistance to drugs such as vincristine, vinblastine, vinorelbine, taxol, docetaxel, etoposide, mitoxantrone, doxorubincin, epirubicin, topotecan, irinotecan, methotrexate, and imatinib etc. See Fojo & Menefee, Ann. Oncol., 18 (Supplement 5):v3-v8 (2007).

[12] = tested on: MVP- and MRP1-overexpressing subline SW-1573/2R120; settings: PGP/MRP-1-overexpressing cell line (SW-1573/2R120), 72 hours, EZ4U MTT
Protocol: as §5

[13] = tested on: human renal cell line A498; settings: A498, same manner as Example 2
From the text: See e.g., Mahalingam et al., Clin. Cancer Res., 16(1):141-153 (2010).

[14] = tested on: human lung carcinoma cell line NCI-H322M; test: ATCC MTT Cell Proliferation Assay, NCI-H322M; format: cell-based; settings: for IC50: NCI-H322M (KRAS wild type), same manner as Example 2
From the text: as §1

[15] = tested on: breast cancer cell line MCF-7; test: ATCC MTT Cell Proliferation Assay, MCF-7; format: cell-based; settings: MCF-7, same manner as Example 2
LNCaP cell line = settings: from Domingo-Domenech et al. 2006; cited from earlier work
PC-3 cell line [16] = test: Published literature IC50 of docetaxel, PC-3; format: cell-based, human; settings: ratio from published literature IC50 values
PC-3 cell line [17] = settings: PC-3, from Domingo-Domenech et al. 2006; cited from earlier work

**Q.** For `[Ga+3].[O-]c1cccc2cccnc12.[O-]c1cccc2cccnc12.[O-]c1cccc2cccnc12`, which IC50 [1] is on record?
**A.** Its IC50 is 838 nM.

**Q.** And the “IC50 Ratio (MDA-MB-231/MCF-7)” value [1]?
**A.** The value was 0.681.

**Q.** What about the IC50 [2] of the same compound?
**A.** The IC50 was 3550 nM.

**Q.** And the IC50 ([3]; A549 (KRAS G12S), same manner as Example 2)?
**A.** Its IC50 is 1110 nM.

**Q.** What about the “IC50 Ratio (A549/H1975)” value [3] of the same compound?
**A.** Its value is 0.31.

**Q.** And the IC50 (HCT-116 p53 (+/+))?
**A.** Its IC50 is 1800 nM.

**Q.** And the IC50 (HCT-116 p53 (−/−))?
**A.** The IC50 was 1700 nM.

**Q.** What about the IC50 [4] of the same compound?
**A.** The IC50 was 2190 nM.

**Q.** What about the IC50 ([5]; PC-3, same manner as Example 2) of the same compound?
**A.** The IC50 was 1790 nM.

**Q.** And the “IC50 Ratio (PC-3/LNCaP)” value ([5]; ratio of IC50 in PC-3 to LNCaP)?
**A.** Its value is 0.82.

**Q.** And the IC50 ([6]; A375, same manner as Example 2)?
**A.** Its IC50 is 1950 nM.

**Q.** What about the IC50 [7] of the same compound?
**A.** Its IC50 is 1600 nM.

**Q.** What about the IC50 [8] of the same compound?
**A.** The IC50 was 1800 nM.

**Q.** And the IC50 [9]?
**A.** The IC50 was 2060 nM.

**Q.** And the IC50 [10]?
**A.** Its IC50 is 1590 nM.

**Q.** What about the “IC50 Ratio (ZR-75-1/MX-1)” value [10] of the same compound?
**A.** The value was 0.77.

**Q.** And the IC50 [11]?
**A.** Its IC50 is 1700 nM.

**Q.** And the IC50 [12]?
**A.** The IC50 was 2100 nM.

**Q.** And the IC50 [13]?
**A.** Its IC50 is 32900 nM.

**Q.** What about the IC50 [14] of the same compound?
**A.** The IC50 was 4950 nM.

**Q.** And the “IC50 Ratio (A549/H1975)” value ([14]; Table 6, Test Drug column, row NCI-H322M)?
**A.** The value was 1.39.

**Q.** And the IC50 [15]?
**A.** Its IC50 is 1230 nM.

**Q.** With `O=c1[nH]cc(F)c(=O)[nH]1` [5-FU, 5-fluorouracil, reference compound] as the compound, how does the IC50 ([9]; Homo sapiens) read?
**A.** The IC50 was 1470 nM.

**Q.** What about the IC50 ([10]; Homo sapiens) of the same compound?
**A.** Its IC50 is 31100 nM.

**Q.** What about the “IC50 Ratio (ZR-75-1/MX-1)” value [10] of the same compound?
**A.** The value was 21.2.

**Q.** What does the source list for `N.N.[Cl][Pt][Cl]` [Cisplatin, cisplatin, reference compound]?
**A.** IC50 [1]: 47100 nM; IC50 Ratio (MDA-MB-231/MCF-7) [1]: 5.88; IC50 [2]: 11400 nM; IC50 [14]: 52300 nM; IC50 Ratio (NCI-H322M/H1975) ([14]; Table 6, cisplatin column): 4.59; IC50 [15]: 8010 nM

**Q.** Which results are given for `CC(=O)O[C@@]12CO[C@@H]1C[C@H](O)[C@@]1(C)C(=O)[C@H](O)C3=C(C)[C@@H](OC(=O)[C@H](O)[C@@H](NC(=O)OC(C)(C)C)c4ccccc4)C[C@@](O)([C@@H](OC(=O)c4ccccc4)[C@H]21)C3(C)C` [Docetaxel, docetaxel]?
**A.** IC50 (LNCaP cell line): 2.5 to 5 nM; IC50 Ratio (PC-3/LNCaP/) (PC-3 cell line [16]): 12-20; IC50 (PC-3 cell line [17]): 50 to 60 nM

**Q.** With `CC(=O)O[C@H]1C(=O)[C@@]2(C)[C@H]([C@H](OC(=O)c3ccccc3)[C@]3(O)C[C@H](OC(=O)[C@H](O)[C@@H](NC(=O)c4ccccc4)c4ccccc4)C(C)=C1C3(C)C)[C@]1(OC(C)=O)CO[C@@H]1C[C@@H]2O` [Paclitaxel, paclitaxel, reference compound] as the compound, how does the IC50 ([2]; Homo sapiens, NCI-H1975) read?
**A.** Its IC50 is 5 nM.

**Q.** And the “IC50 Ratio (A549/H1975)” value [3]?
**A.** The value was 1984.

**Q.** With `Cn1nnc2c(C(N)=O)ncn2c1=O` [temozolomide, reference compound] as the compound, how does the IC50 ([6]; Homo sapiens, A-375) read?
**A.** The IC50 was 369000 nM.
